Where only a bound is given, the exact number is not on record here.

Series [1] is described as follows: Pharmacokinetic study in male SD rats. To be noted: rat, plasma. The series is classed as in vivo. The protocol:
1) Purpose of the Study: Obtain the Pharmacokinetic Characterization of the Compounds of the Present Invention in Male SD Rats
For each compound, 6 healthy male SD rats (weight range 200-250 g) was taken and divided into 2 groups of 3 each; Group 1 was administered intravenously in a single dose (see Table 2 for dosage) and Group 2 was administered orally in a single gavage (see Table 2 for dosage, fasted overnight before administration). Blood was collected by jugular vein or cardiac puncture at 0.083 (group 1 only), 0.25, 0.5, 1, 2, 4, 6 (group 2 only), 8 and 24 h after drug administration, respectively, and at least 0.2 mL of whole blood was collected from each sample into EDTA-K2 anticoagulant tubes, and the samples were mixed and placed on wet ice after sample collection, and then centrifuged to separate plasma (6,800 g, 6 min, 2-8° C.) at 1 h. The plasma samples were stored in ultra-low temperature refrigerators before analysis.
Experimental results: The pharmacokinetic parameters after administration were calculated from the blood concentration data obtained by LC-MS/MS assay using the non-compartmental model of WinNonlin® 7.0 software (Pharsight, Inc., USA) and are shown in the table below: […]

The target of another series is T1, ROCK1 (Homo sapiens, UniProt Q13464).
T1 construct: purchased Invitrogen PV3691
Nature of the series: Kinase IC50 assay, HTRF kinEASE STK S2 kit, ROCK1. It counts as biochemical. To be noted: ATP 1.5 μM, 2.5 ng/well enzyme, 120 min. The procedure: (§1) Kinase IC50 assay was performed using the kinase assay kit HTRF kinEASE STK S2 kit (Cat #62ST2PEC, Cisbio). Kinases ROCK1 (Cat #PV3691) and ROCK2 (Cat #PV3759) were purchased from Invitrogen.
(§2) The working solution required for the assay was prepared with the appropriate reagents as described in the kinase assay kit instructions:
(§3) 1 mL of 1× Kinase Buffer contains 200 μL 5× Enzyme buffer, 5 μL 1M MgCl2 (Cat.M8266, Sigma), 1 μL 1M DTT (Cat.D5545, Sigma), 794 μL ddH2O.
(§4) The specific concentrations of STK-biotin substrate and ATP are shown in Table A. STK-biotin substrate and ATP were diluted with 1× kinase buffer to 2.5 times of the reaction concentration.
(§5) Concentrations of ROCK1/ROCK2 are shown in Table A. 5×ROCK1/ROCK2 Kinase working solution was prepared with 1× Kinase Buffer.
(§6) See Table A for the concentrations of Streptavidin-XL665 and STK Antibody-Cryptate in the reaction. 2× Streptavidin-XL665 and STK Antibody-Cryptate Working Solutions were prepared 5 minutes prior to the end of the kinase reaction using Detection Buffer from the kit.
(§7) A 100 μM compound mother solution was prepared using 1× kinase buffer containing 2.5% DMSO, and the mother solution was diluted 4-fold stepwise with the above DMSO-containing kinase buffer to obtain nine different concentrations of the compound solutions to be tested. In addition to the test compound wells, positive control wells (containing all reagents except the compounds) and negative control wells (containing all reagents except the compounds and kinase) were set up. 4 μL of the test compound solution was added to all reaction wells except the control wells and 4 μL of 2.5% DMSO solution was added to the control wells. Then 4 μL of previously prepared substrate and ATP working solution were added to all wells and mix well. Then, 2 μL/well of 5×ROCK1/ROCK2 kinase working solution (containing 2.5 ng ROCK1/ROCK2 kinase) was added to all reaction wells except negative control wells, and the negative control wells were made up to volume with 2 μL of 1× kinase buffer. Mix well, seal with plastic film and incubate at room temperature for 2 hours. Start preparing the assay solution 5 minutes before the end of the kinase reaction. After the end of the kinase reaction, 10 μL of prepared Streptavidin-XL665 and STK Antibody-Cryptate working solution were added to all reaction wells, the plates were sealed and mixed well, and then incubated at room temperature for 1 hour. Finally, the fluorescence signal was detected by SpectraMax i3x Multi-Mode Reader (Molecular Devices) (excitation wavelength is 320 nm, emission wavelength is 665 nm and 615 nm).
(§8) The inhibition rate in each well was calculated from the fluorescence intensity values of each well:
(§9) ER Emission Ratio, Emission light ratio=fluorescence intensity at 665 nm/fluorescence intensity at 615 nm;
(§10) ERcompound, ER of test compound wells; ERvehicle, ER of solvent (positive) control wells, ERblank, ER of blank (negative) control wells.
(§11) The graphs were plotted using the software GraphPad Prism 6.0, while the half inhibitory concentration (IC50) of each compound to be tested was obtained by fitting with Prism 6.0.
For orientation: Time-resolved FRET reads energy transfer from a long-lived donor to a nearby acceptor.

The target of another series is T2, ROCK2 (Homo sapiens, UniProt O75116).
T2 construct: purchased Invitrogen PV3759
The series can be described thus: Kinase IC50 assay, HTRF kinEASE STK S2 kit, ROCK2. It counts as biochemical. Conditions: ATP 1 μM, 2.5 ng/well enzyme, 120 min. The protocol: as §1, §2, §3, §4, §5, §6, §7, §8, §9, §10, §11

Where [2] appears, read: po, gavage 10 mg/kg, fasted overnight.

T1 sequence (Q13464 1-535 limits assumed): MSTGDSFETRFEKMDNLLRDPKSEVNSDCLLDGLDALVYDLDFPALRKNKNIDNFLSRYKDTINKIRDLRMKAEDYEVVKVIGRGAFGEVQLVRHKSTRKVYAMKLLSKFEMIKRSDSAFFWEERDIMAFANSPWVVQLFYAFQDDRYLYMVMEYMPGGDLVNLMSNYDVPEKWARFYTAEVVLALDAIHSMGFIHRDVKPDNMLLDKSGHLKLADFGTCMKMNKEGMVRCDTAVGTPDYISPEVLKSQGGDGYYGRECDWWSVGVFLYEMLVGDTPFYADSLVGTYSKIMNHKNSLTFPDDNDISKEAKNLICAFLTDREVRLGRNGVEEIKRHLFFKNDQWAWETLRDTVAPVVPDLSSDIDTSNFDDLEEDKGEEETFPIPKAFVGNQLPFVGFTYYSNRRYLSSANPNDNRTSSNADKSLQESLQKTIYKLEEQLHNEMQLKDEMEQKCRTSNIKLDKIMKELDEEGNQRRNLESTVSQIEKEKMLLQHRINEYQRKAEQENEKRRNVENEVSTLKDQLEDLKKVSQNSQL
T2 sequence (O75116 5-554 limits assumed): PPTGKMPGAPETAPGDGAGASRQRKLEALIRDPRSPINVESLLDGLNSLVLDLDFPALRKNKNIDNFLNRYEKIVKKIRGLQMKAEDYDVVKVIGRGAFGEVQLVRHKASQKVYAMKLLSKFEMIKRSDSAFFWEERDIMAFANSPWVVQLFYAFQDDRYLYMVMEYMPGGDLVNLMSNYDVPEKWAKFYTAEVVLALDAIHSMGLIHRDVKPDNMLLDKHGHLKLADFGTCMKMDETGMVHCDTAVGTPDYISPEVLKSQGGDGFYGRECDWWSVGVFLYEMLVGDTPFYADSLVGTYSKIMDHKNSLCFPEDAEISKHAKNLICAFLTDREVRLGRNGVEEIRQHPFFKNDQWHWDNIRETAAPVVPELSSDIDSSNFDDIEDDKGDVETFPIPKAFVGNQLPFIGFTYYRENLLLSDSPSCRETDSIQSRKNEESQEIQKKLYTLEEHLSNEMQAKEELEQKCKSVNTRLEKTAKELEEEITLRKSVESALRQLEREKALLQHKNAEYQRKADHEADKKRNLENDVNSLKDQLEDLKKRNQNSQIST

By AUC(0-t) is commonly meant the area under the concentration-time curve up to a stated or last time point. Low readings indicate low exposure, high ones high exposure. The Cmax is the peak of the concentration-time curve. By Tmax is commonly meant the time from dosing to the highest level. For orientation: half-life means the time needed for the level to fall by half in the phase considered. Low readings indicate rapid decline, high ones slow decline. For orientation: bioavailability means dose-corrected exposure relative to a reference, in per cent. A low value points to little systemic uptake. In general, IC50 refers to the midpoint of a concentration-inhibition curve. Higher therefore signals weaker potency. Take `Cn1c(C#Cc2nccc(Nc3ccc(-c4cn[nH]c4)cc3)n2)ccc1C(=O)N1CC(F)(F)C1` [Compound A1]: in series [1] (intravenous injection 1 mg/kg), the AUC(0-t) was 1210 ng·h/mL, the Cmax worked out at 765 ng/mL, the Tmax came out at 0.08 h and the half-life was 2.05 h. In series [1] (oral, gavage 10 mg/kg vs intravenous 1 mg/kg), the bioavailability was found to be 11.5%. Moreover, in series [1] (setting [2]), the exposure AUC(0-t) is 1400 ng·h/mL, the highest concentration (Cmax) amounted to 251 ng/mL, the Tmax was found to be 1.33 h and the half-life is 3.47 h. Moreover, on ROCK1, the IC50 is greater than 100 µM. Besides, the IC50 against ROCK2 amounted to 0.104 µM.
Regarding `Cc1cc(C(=O)N2CC(O)C2)n(C)c1C#Cc1ncc(F)c(Nc2cc(F)c(-c3cn[nH]c3)cc2F)n1` [Compound A56], the half-inhibitory concentration (IC50) against ROCK1 was greater than 100 µM; against ROCK2, 0.0193 µM.
`COC1CN(C(=O)c2cc(C)c(C#Cc3ncc(F)c(Nc4cc(F)c(-c5cn[nH]c5)cc4F)n3)n2C)C1` [Compound A57]: the IC50 is greater than 100 µM at ROCK1 and 0.0324 µM against ROCK2.
